Data taken from patent publication US20240108637A1, “EPITE[…] AND/OR A STEROID SULFATASE INHIBITOR FOR USE IN TREATING OR IMPROVING AGE RELATED COGNITIVE IMPAIRMENT” (U[…] DE OLAVIDE, priority 2020, published 2024).
“Also recorded” adds a separate entry of the source.

Assays:
C. elegans = experiment: Lifespan assays in C. elegans; assay type: in vivo, Caenorhabditis elegans
Method: F2 L4 animals were shifted to 25° C. (t=0). ES treatment started at L4 stage, control and treated plates were prepared fresh and animals transferred each three days until death. Animals lost or dead by non-physiological causes were censured. Survival curves were generated using the product-limit method of Kaplan and Meier. The log-rank (Mantel-Cox) test was used to evaluate differences in survival and […] lower than 0.05 were considered significant.

[1] = system: polyglutamine repeats fused to YFP (Q40 background, strain AM141); experiment: Huntington neurodegenerative model: number of polyglutamine aggregates; assay type: in vivo, C. elegans; conditions: 1 μg/ml, 5-day old worms
[2] = system: GMC101 strain expressing human β-amyloid in muscle; experiment: Alzheimer's disease model: thermodependent paralysis of GMC101 strain; assay type: in vivo, C. elegans; conditions: 1 μg/ml, FIG. 3h, FIG. 4b
From the text: (§1) In this model, GFP-labelled dopaminergic neurons die due to α-synuclein toxicity. […] We also tested two different strains of Alzheimer's disease (AD) in worms, where immobility is caused by expression of βA protein in muscle cells.

[3] = system: CL2006 strain expressing human β-amyloid in muscle; experiment: Alzheimer's disease model: paralysis with age of CL2006 strain; assay type: in vivo, C. elegans; conditions: Log-rank (Mantel-Cox) test p=0.007, FIG. 12g
From the text: as §1

daf-2(e1370) = experiment: Developmental arrest (dauer / L1) at 25° C.; assay type: in vivo, C. elegans; conditions: daf-2(e1370) background
Method: Worms were growth at 16° C. until L4, then shifted to 25° C. considering this Day 0 of adulthood. The pumping was counted under the Leica stereoscope at 100× magnification for 30 seconds. Data display from two independent biological assays (n=30 per day). Two-tailed Mann-Whitney t-test, ***p=0.0006. e Thrashing in sul-2(gk187) is similar to wild type but is slightly lower in sul-2 (pv17) at 25° C. on day 1 of adulthood. On day 6 at 25° of adulthood, the trashing on sul-2(gk187) is lower than wild type and sul-(pv17), with no differences among these last strains. The population of sul-2(gk17) at day 6 seems to distribute into two different populations, one with almost no thrashing and other with values similar to wild type a sul-2(pv17). […] In this condition, all animals from daf-2(e1370); sul-2(pv17) double mutants arrest at L1 stage. Similarly, more than 50% of animals arrest in L1 stage in daf-2(m577); sul-2(pv17) background, while none of the single mutants show this phenotype. i Example of sul-2(pv17) larvae, dauer larval arrest of daf-2(e1370) or L1 arrest of daf-2(e1370); sul-2 (pv17) and daf-2(e1370); sul-2(gk187) at 25° C. Animals were grown up to L4 at 16° C., then shifted at 25° C., progeny were scored or imaged after 72 hours. Photographs were taken in a Leica scope.

[4] = system: wild type mice injected with β-amyloid oligomers in the hippocampus; experiment: Passive avoidance test after intrahippocampal βA oligomers infusion (acute AD model); assay type: in vivo
From the text: (§2) As STX64 ameliorated neurodegeneration in C. elegans models, we tested the effect of this drug on cognitive alterations provoked by intrahippocampal βA oligomers infusion, an acute AD mammalian model (FIG. 3i). […] To evaluate the effect of STX64 oral treatment on amyloid pathology in a chronic AD mice model, we assessed the effect of 3-4 weeks of STX64 oral treatment on amyloid deposition in the neocortex (the cerebral cortex and the hippocampus) of >15-month-old APP-PS1 mice (FIG. 4k). […] We wondered if this histological improvement correlated with amelioration of cognitive behavioural deficit. For that, we compared cognition capacities in APP-PS1 mice older than 15-month-old treated with vehicle or STX64 for 3-4 weeks.
(§3) The first, object recognition, after training with identical objects, tests the ability to identify different objects exposed together with a familiar one. When this happens, the object discrimination index is positive and higher than 0.1. […] For this purpose, during training, the entry latency to the preferred site is established and the aversive stimulus is administered.

APP-PS1 mice [5] = experiment: β-amyloid deposition in frontal cortex and hippocampus (chronic AD model); assay type: in vivo; conditions: 3-4 weeks oral
From the text: as §2

APP-PS1 mice [6] = experiment: Passive avoidance test in APP-PS1 mice; assay type: in vivo; conditions: APP-PS1 mice older than 15-month-old; 3-4 weeks oral
From the text: as §2, §3

aged mice [7] = experiment: Cognition of aged mice under STX64 treatment (FIG. 16-19, headline); assay type: in vivo
aged mice [8] = experiment: Passive avoidance test in aged mice (STM and LTM); assay type: in vivo
Method: as §3
During short- and long-term memory tests (STM and LTM) if the mouse associated the preferred place to the aversive stimulus, the input latency increases with respect to training.

16-month-old mice [9] = experiment: Open Field test; assay type: in vivo; conditions: FIG. 20; for habituation ability: aged animals, Open Field 15 minutes
Method: (§4) The “Open Field” is a test where the mouse must explore an unknown space for 15 minutes. In this test, both mobility and habituation (cognitive parameter that measures the individual's ability to recognize the environment) can be studied. On the other hand, the “Y maze” test is a test where the mouse explores the maze for 6 minutes. This test evaluates the distance traveled as a measure of mobility and the ability to visit triplets of arms without repeating any of them as a sign of immediate memory.

16-month-old mice [10] = experiment: Y maze test; assay type: in vivo; conditions: aged animals, Y maze 6 minutes, FIG. 20
Method: as §4

`NS(=O)(=O)Oc1ccc2c3c(c(=O)oc2c1)CCCCC3` [STX64] was tested, and the “dependence of the increase of longevity on daf-36” value (C. elegans; daf-36 mutant, 1 μg/ml, FIG. 2m) was “daf-36 is necessary for the increase of longevity; also recorded: DAF-36 is required for the longevity”, the lifespan (C. elegans; sul-2 (gk187) deletion background, 1 μg/ml, UV-killed E. coli, FIG. 1D) was “does not further increase the longevity” and the lifespan (C. elegans; wild type animals, 1 μg/ml, UV-killed E. coli, FIG. 1D) was “increases lifespan”. The longevity (C. elegans; wild type animals, text statement (FIG. 1d, FIG. 7a-c)) was “increase in longevity; also recorded: extends lifespan”, the lifespan (C. elegans; wild type, non-UV E. coli, FIG. 7a) was “increases lifespan of wild type” and the “number of polyglutamine aggregates” value [1] was “aggregates are reduced; also recorded: reduced the number of aggregates”. For the same compound, the paralysis phenotype [2] was “the paralysis phenotype is ameliorated; also recorded: delayed paralysis”, the paralysis with age [3] was “delayed paralysis; also recorded: ameliorated” and the L1 arrest (daf-2(e1370)) was “phenocopies other sul-2 mutant phenotypes; also recorded: mainly arrests in L1”. For the same compound, the L1 arrest (daf-2(e1370); listed as STX 64) was “increase of L1 arrest”, the “cognitive deficiencies, passive avoidance test” value (shortened to “cognitive deficiencies”) ([4]; local (intrahippocampal) administration) was “reverted the cognitive deficiencies” and the “cognitive deficiencies” value ([4]; systemic (oral) administration) was “reverted the cognitive deficiencies”. For the same compound, the “βA deposition compared with un-treated APP-PS1 mice of 10-12 months of age” value (APP-PS1 mice [5]; APP-PS1 mice older than 15 months) was “reduces βA deposition”, the βA immunoreactive area (APP-PS1 mice [5]; frontal cortex and hippocampus, >15-month-old APP-PS1 mice) was “reduced in both tissues” and the βA plaque density (APP-PS1 mice [5]; frontal cortex and hippocampus, >15-month-old APP-PS1 mice, 0.005 mg/ml in drink water) was “significant reduction”. The βA plaque size (APP-PS1 mice [5]; frontal cortex, >15-month-old APP-PS1 mice, 0.005 mg/ml in drink water) was “significant reduction”, the “cognitive deficiencies” value (APP-PS1 mice [6]) was “completely reverted cognitive deficiencies” and the cognition (aged mice [7]; 1-month treatment in 18 months old mice, 19 months when assayed, FIG. 18) was “improves cognition”. The cognition (aged mice [7]; 3-month treatment in 18 months old mice, 21 months when assayed, FIG. 19) was “improves cognition”, the cognition (aged mice [7]; 3 months treatment in 15 months old mice, FIG. 16) was “improves cognition” and the cognition (aged mice [7]; 6 months treatment in 15 months old mice, 21 months when assayed, FIG. 17) was “improves cognition”. The “short term and long-term memory in passive avoidance test” value (aged mice [8]; 1-month treatment in 18 months old mice, FIG. 18B) was “significant improvement”, the “learning (STM) and memory (LTM), passive avoidance test” value (aged mice [8]; aged mice, vs vehicle-treated, FIG. 21, listed as STX) was “showed significantly both learning (STM) and ability to store information (memory); also recorded: significant improvement in both learning (STM) and ability to store information (memory)” and the “motor ability (mobility)” value (16-month-old mice [9]; 16-month-old mice, Open Field mobility and Y maze distance traveled) was “tend to improve”. The habituation ability (16-month-old mice [9]) was “tend to improve”, the habituation ability (16-month-old mice [9]; listed as STX) was “are improved” and the immediate memory (16-month-old mice [10]) was “tend to improve”. The immediate memory (16-month-old mice [10]; listed as STX) was “are improved”.
